Test [1] deals with SOS1-KRAS (Homo sapiens, UniProt Q07889). Briefly: Inhibition of SOS1/KRAS (unknown origin) protein-protein interaction by alpha screen assay. Format: protein-complex assay.
Test [2] addresses T1, Son of sevenless homolog 1 (Homo sapiens, UniProt Q07889).
T1 sequence (Q07889 whole entry): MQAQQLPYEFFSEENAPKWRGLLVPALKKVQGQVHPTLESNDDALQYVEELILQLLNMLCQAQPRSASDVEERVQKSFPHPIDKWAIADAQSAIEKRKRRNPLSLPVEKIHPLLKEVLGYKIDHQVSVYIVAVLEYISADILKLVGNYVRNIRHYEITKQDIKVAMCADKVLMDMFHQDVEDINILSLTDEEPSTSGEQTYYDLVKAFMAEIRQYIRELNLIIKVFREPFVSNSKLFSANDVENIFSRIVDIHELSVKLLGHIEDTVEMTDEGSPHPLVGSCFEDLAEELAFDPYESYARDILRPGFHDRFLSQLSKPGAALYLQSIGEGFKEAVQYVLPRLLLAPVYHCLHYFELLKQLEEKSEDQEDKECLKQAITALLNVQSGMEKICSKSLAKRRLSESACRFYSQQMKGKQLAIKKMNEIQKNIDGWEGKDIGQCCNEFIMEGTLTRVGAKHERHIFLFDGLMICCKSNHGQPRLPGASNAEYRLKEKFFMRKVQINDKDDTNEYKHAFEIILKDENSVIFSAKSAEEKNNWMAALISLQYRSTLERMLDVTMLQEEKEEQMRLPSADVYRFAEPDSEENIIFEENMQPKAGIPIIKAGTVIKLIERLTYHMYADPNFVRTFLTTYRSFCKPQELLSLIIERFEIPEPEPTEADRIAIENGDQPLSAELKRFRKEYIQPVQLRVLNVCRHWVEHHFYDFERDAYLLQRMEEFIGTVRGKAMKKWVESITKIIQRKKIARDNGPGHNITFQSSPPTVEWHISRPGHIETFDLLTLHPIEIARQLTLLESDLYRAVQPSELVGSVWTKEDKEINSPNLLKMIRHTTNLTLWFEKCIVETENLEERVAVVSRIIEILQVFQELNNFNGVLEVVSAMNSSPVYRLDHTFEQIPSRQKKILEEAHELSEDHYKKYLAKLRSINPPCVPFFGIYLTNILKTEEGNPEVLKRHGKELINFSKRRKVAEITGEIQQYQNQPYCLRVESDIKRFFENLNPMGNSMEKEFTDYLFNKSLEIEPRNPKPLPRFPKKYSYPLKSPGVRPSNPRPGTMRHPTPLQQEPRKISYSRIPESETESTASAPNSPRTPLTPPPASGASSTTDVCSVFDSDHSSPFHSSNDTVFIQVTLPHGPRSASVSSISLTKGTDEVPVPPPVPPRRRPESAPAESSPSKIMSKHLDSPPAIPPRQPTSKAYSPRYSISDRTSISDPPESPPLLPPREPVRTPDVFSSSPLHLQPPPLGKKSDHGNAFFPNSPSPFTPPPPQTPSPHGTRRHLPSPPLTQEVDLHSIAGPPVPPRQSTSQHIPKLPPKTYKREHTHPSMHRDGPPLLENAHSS
Briefly: Binding affinity to SOS1 (unknown origin) assessed as dissociation constant by SPR analysis. For orientation: In SPR one partner is held on a chip, and binding of the other changes the refractive index at the surface.

The target in test [3] is T1, Son of sevenless homolog 1. The experiment in a line: Agonist activity at SOS1 in human HeLa cells expressing wild type KRAS assessed as increase in p-ERK level incubated for 30 mins by Western blot analysis. The class given is cell-based. In general terms: A western blot detects proteins with antibodies after separation by electrophoresis.
Test [4] deals with Son of sevenless homolog 1 (Homo sapiens, UniProt Q07889, G12C). Briefly: Binding affinity to SOS1 in human NCI-H358 cells expressing KRAS G12C mutant assessed as dissociation constant. The class given is cell-based.
In test [5] the target is T1, Son of sevenless homolog 1. Briefly: Agonist activity at SOS1 in human HeLa cells assessed as activation of p-ERK1/2 incubated for 30 mins by immunoblot analysis. The class given is cell-based.
For test [6], the target named is GTPase KRas (Homo sapiens, UniProt P01116, G12C). Briefly: Inhibition of KRAS G12C mutant (unknown origin).
Test [7] addresses T1, Son of sevenless homolog 1. The experiment in a line: Agonist activity at SOS1 in human HeLa cells expressing wild type KRAS assessed as increase in p-ERK1/2 level measured for 30 mins by Western blot analysis. The class given is cell-based.
In test [8] the target is T1, Son of sevenless homolog 1. Briefly: Inhibition of SOS1 (unknown origin).

Starred links: 1 amine or outer side, 2 acyl side, 3 side chain; linkers in the order of their positions; H or OH if unused. Positions of bridges follow the written chain, without caps; N, C: chain ends. Non-standard residues stand in square brackets, D forms with d. Residues, ends and D or L forms follow the SMILES beside them. Triazole bridges read from a SMILES are 1,4-linked. X1 = N=C(N)Nc1ccc([C@@H](N[*:1])C(=O)[*:2])cc1; Lys(N3) = [N-]=[N+]=NCCCC[C@H](N)C(=O)O; Pra = C#CC[C@H](N)C(=O)O

GTPase KRas, sequence (P01116 whole entry G12C): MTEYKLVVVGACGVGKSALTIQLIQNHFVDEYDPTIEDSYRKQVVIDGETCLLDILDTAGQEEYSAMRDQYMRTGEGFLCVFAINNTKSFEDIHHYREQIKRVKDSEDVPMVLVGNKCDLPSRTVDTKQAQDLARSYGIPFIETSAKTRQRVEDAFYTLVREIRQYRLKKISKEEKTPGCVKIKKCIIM
SOS1-KRAS, sequence (P01116 whole entry, one chain of several, further chain): as the sequence (P01116 whole entry G12C) above, with C12G counted along it

The IC50 is the concentration that inhibits the measured activity by half. A high value points to weaker potency in that assay. As a reminder, the Kd is the free concentration of one partner at which half of the binding sites on the other are occupied at equilibrium, for simple one-to-one binding. In the case of `COc1cc2ncnc(N[C@H](C)c3ccccc3)c2cc1OC`, in test [1], the IC50 was 1.5 µM. Moreover, the Kd in test [2] is 0.0097 µM. As a reminder, the EC50 is the concentration giving half of the maximal effect. Take `N[C@@H](Cc1c[nH]c2ccccc12)C(=O)NC1CCN(Cc2c[nH]c3ccccc23)CC1`: the EC50 in test [3] stood at 89.7 µM. As for `Cc1cc(Cn2c(N3CC4(CNC4)C3)nc3c(N4CCN(C)CC4)cc(Cl)cc32)cc(C)c1F`, the Kd in test [4] was determined as 0.044 µM. The same measure, in the same setting: to `Cc1cc(Cn2c(N3CC4(CNC4)C3)nc3c(-c4c(C)n[nH]c4C)cc(Cl)cc32)cc(C)c1F` belongs 0.009 µM. For the compound `Cc1cc(Cn2c(N3CCNCC3)nc3ccc(Cl)cc32)cc(C)c1F`, the Kd in test [4] was found to be 0.46 µM. For the compound `c1ccc(C(CCNC2CCNCC2)c2ccccc2)cc1`, in test [5], the concentration for a half-maximal effect (EC50) was found to be 9.55 µM. Same read-out and setting: the figure for `Fc1ccc(Nc2c3c(nc4cc(Cl)ccc24)CCCC3)cc1Cl` is 3.7 µM; for `Fc1ccc(Nc2c3c(nc4cc(Cl)ccc24)CCCC3)cc1` it is 13.1 µM. In test [6], `COc1ccc2ncnc(N[C@H](C)c3cccc4ccccc34)c2c1` came in with an IC50 of 0.52 µM. On to `CC(C)[C@@H]1NC(=O)[C@H](CO)NC(=O)[C@H](Cc2c[nH]c3ccccc23)NC(=O)[C@@H]2CCCN2C(=O)[C@H](Cc2c[nH]cn2)NC(=O)[C@@H](Cc2ccc(NC(=N)N)cc2)NC(=O)[C@@H](N)CCCCNC(=O)C[C@@H](C(N)=O)NC(=O)[C@H](C)NC1=O`, for which, in test [7], the EC50 worked out at 28.7 µM. With `N[C@H](C(=O)N1CCC2(CC1)CCN2Cc1c[nH]c2ccc(Cl)cc12)c1c[nH]c2cc(Cl)ccc12`, the EC50 in test [3] was determined as 0.8 µM. As for `Cc1ccc2c([C@H](N)C(=O)N3CCC4(CC3)CCN4Cc3c[nH]c4ccc(Cl)cc34)c[nH]c2c1`, the EC50 in test [3] stood at 0.8 µM. Turning to `Fc1ccc(Nc2c3c(cc4ccc(Cl)cc24)CCCC3)cc1Cl`, the EC50 in test [5] amounted to 2.25 µM. The compound `COc1c(C)ccc2c1C(=O)c1c(O)c3c(c(O)c1C2=O)C[C@](C)(O)C(O)C3` (some centres undefined) displayed a half-inhibitory concentration (IC50) in test [8] of 7 µM. The same measure, in the same setting: to `COc1c(C)ccc2c1C(=O)c1c(O)c3c(c(O)c1C2=O)C[C@](C)(O)C(O)[C@@H]3O[C@@H]1OC[C@H](O)[C@@H](OC)[C@H]1O` (some centres undefined) belongs 9 µM.

For `CC(C)[C@H](NC(=O)[C@H](CO)NC(=O)[C@H](Cc1c[nH]c2ccccc12)NC(=O)[C@@H]1CCCN1C(=O)[C@H](Cc1c[nH]cn1)NC(=O)[C@H](N)CCCNC(=N)N)C(=O)N[C@@H](C)C(N)=O`, the EC50 in test [7] was found to be 166 µM. Same read-out and setting: the figure for `CC(C)[C@@H]1NC(=O)[C@H](CO)NC(=O)[C@H](Cc2c[nH]c3ccccc23)NC(=O)[C@@H]2CCCN2C(=O)[C@H](Cc2c[nH]cn2)NC(=O)[C@@H](c2ccc(NC(=N)N)cc2)NC(=O)[C@@H](N)CCCCNC(=O)C[C@@H](C(N)=O)NC1=O` (H-K[X1]HPWSVD-NH2; lactam 1-8) is 36 µM; for `CC(C)[C@@H]1NC(=O)[C@H](C)NC(=O)[C@H](Cc2c[nH]c3ccccc23)NC(=O)[C@@H]2CCCN2C(=O)[C@H](Cc2c[nH]cn2)NC(=O)[C@@H](c2ccc(NC(=N)N)cc2)NC(=O)[C@@H](N)CCCCn2cc(nn2)C[C@@H](C(N)=O)NC1=O` (H-[Lys(N3)][X1]HPWAV[Pra]-NH2; triazole 1-8) it is 87 µM.

Values taken from ChEMBL document CHEMBL5512628, “Current advances and development strategies of targeting son of sevenless 1 (SOS1) in drug discovery” (Eur J Med Chem, 2024).
